# According to patent US20260091082A1, “CYCLIC PEPTIDE DERIVATIVE COMPOSITION FOR TREATING OR PREVENTING EYE DISEASE” (DKS Co. Ltd., priority 2022, published 2026):
# “And” between values parts separate entries of the source, which are not always exact repeats. Equal values may be shown once.
# Test system: anterior chamber aqueous humor pressure load rat model
# Test: Retinal thickness (IPL, INL, ONL) in retinal damage model induced by anterior chamber aqueous humor pressure load
# Format: in vivo, Rat; Slc: SD
# Details: for Thickness of IPL (μm) / Thickness of ONL (μm) / Thickness of INL (μm): 900 μm from optic disk, 14 days after model creation, mean ± S.E., 10 animals
# Description: • Name: Compound 9 • Source: Synthesized in the above Examples • Used amount: 0.4 mL (50 mg/mL solution) • Storage conditions: Freezing, light shielding
# Method for preparing test substance (1 mg/mL): A high concentration solution prepared at 50 mg/mL was diluted 50 times with a medium to prepare a 1 mg/mL administration solution.
# • Name: MK-801 • Distributor: SIGMA-ALDRICH • Use amount: 0.0501 g • Storage condition: refrigerated (2° C. to 8° C.)
# Method for preparing positive control substance (10 mg/mL): 0.0501 g was weighed out and made up to a total volume of 5 mL with a control substance (physiological saline).
# • Species and strains: Rat; Slc: SD • Number of animals on arrival and sex: 50 males • Age in weeks at arrival: 6 weeks old • Body weight range at arrival: 147.2 to 170.0 g • Source: Japan SLC, Inc.
# Grouping was performed two days before the first creation of the retinal damage model induced by an anterior chamber aqueous humor pressure load. Using the daily body weight as an index, stratified random allocation was performed using SAS (Ver. 9.3, SAS Institute Japan Ltd.) and EXSUS (Ver. 8.0, CAC Croit Corporation) so that an average value of the body weights of each group was approximately uniform.
# • Administration route: Eyedrop administration, intravenous administration • Administration method (eyedrop): Eyedrop administration was performed on a treated eye (right eye) of a rat using a micropipette 4 times a day (at intervals of 1.5 hours or more). • Administration method (intravenous): The amount of administration solution, calculated from the body weight on the day of administration, was administered from the tail vein using a syringe and an injection needle about 30 minutes before ischemic load. • Time of administration: Administration was performed according to the following schedule.
# 1. 10 mg/kg xylazine hydrochloride was intramuscularly administered on the model creation day (day 0). A rat was placed in an anesthesia box and subjected to general anesthesia with isoflurane (5%, oxygen:nitrous oxide=1:3). When anesthesia was effective, the rat was taken out of the anesthesia box, an inhalation anesthetic mask was worn, and anesthesia was maintained with isoflurane (1% to 5%, oxygen nitrous oxide=1:3).
# 2. The body temperature was maintained at 37° C. with a warming mat, and a mydrin P ophthalmic solution was instilled in the right eye (treated eye) of the rat to dilate the pupil, then the cravit ophthalmic solution 1.5% (Santen Pharmaceutical Co., Ltd.) was instilled.
# 3. A bottle of an IV bag containing physiological saline was previously suspended so that a water surface was 155 cm (100 mmHg or more) higher than the eye of the rat. The IV bag was connected to a pediatric infusion set (Terumo Corporation), a 27 G injection needle thereof was inserted into and fixed to the anterior chamber while slightly dripping the liquid from a needle tip. The model was created in the light phase (6:00 to 18:00) in consideration of the diurnal variation of the intraocular pressure.
# 4. After the needle was inserted into the anterior chamber, pressure (100 mmHg or more) was loaded and maintained in the anterior chamber by associating the reflux system.
# 5. After an ischemic load for 45 minutes, the injection needle and the like were removed, the inhalation anesthetic mask was removed, and the rat was sufficiently woken up under a warming mat, and then returned to the cage.
# 6. For 2 days after surgery, 10 mg/kg xylazine hydrochloride was intramuscularly administered as an analgesic for the purpose of alleviating the pain after the treatment.
# 1. Fourteen days after model creation, general anesthesia was performed with isoflurane (5%, oxygen:nitrous oxide=1:3), euthanasia was then performed by exsanguination, a suture was placed as a marker at the 12 o'clock position of the ocular conjunctiva, and eyeball enucleation was performed.
# 2. […]
# [1] = 1 mg/mL eye drop 4 times/day for 13 days from the day after model creation (test group 3)
# [2] = 1 mg/mL eye drop 4 times/day for 13 days from the day after model creation (test group 3), listed as compound 9
# [3] = (pre) 1 mg/mL eye drop 4 times/day on the 2 days before model creation (test group 2)
# [4] = (pre) 1 mg/mL eye drop 4 times/day on the 2 days before model creation (test group 2), listed as compound 9
# [5] = compound 9 (pre), 1 mg/mL eye drop, right eye, individual animals 201-210
compound,measurement,setting,value
CC[C@@]1(C)Oc2cc(ccc2O)C[C@H](NC)C(=O)N[C@@H](C(C)C)C(=O)N[C@@H]1C(=O)N[C@@H](CC(=O)O)C(=O)O [Compound 9],Thickness of IPL (μm),[1],44.32±1.47 μm
same,Thickness of ONL (μm),[1],39.42±1.92 μm
same,Thickness of INL (μm),[2],28.71 ± 1.67 μm
same,Thickness of ONL (μm),[2],39.42 ± 1.92 μm
same,Thickness of INL (μm),[3],30.39±1.24 μm
same,Thickness of IPL (μm),[3],41.51±1.27 μm
same,Thickness of ONL (μm),[3],42.55±1.13 μm
same,Thickness of INL (μm),[4],30.39 ± 1.24 μm
same,Thickness of ONL (μm),[4],42.55 ± 1.13 μm
same,Inhibitory effect on retinal damage induced by ischemia of aqueous humor pressure load,"anterior chamber aqueous humor pressure load rat model, overall conclusion",inhibitory effect on retinal damage induced by ischemia of aqueous humor pressure load was observed
same,"Thickness of ONL, distance from optic disk 600 μm (single measurement)",[5],41.121 μm and 44.598 μm and 41.326 μm (2×) and 41.066 μm and 41.161 μm and 38.743 μm and 41.131 μm and 38.275 μm and 37.963 μm and 43.645 μm and 43.106 μm and 45.168 μm and 47.317 μm and 40.325 μm and 41.137 μm and 43.653 μm and 45.150 μm and 48.296 μm and 46.805 μm and 44.685 μm and 46.160 μm and 42.772 μm and 45.479 μm and 40.612 μm and 40.588 μm and 46.031 μm and 41.299 μm and 42.932 μm and 48.910 μm
same,"Thickness of ONL, distance from optic disk 900 μm (single measurement)",[5],39.011 μm and 42.742 μm and 45.091 μm and 47.744 μm and 45.684 μm and 43.996 μm and 37.237 μm and 36.389 μm and 38.143 μm and 43.578 μm and 39.518 μm and 41.375 μm and 35.794 μm and 34.452 μm and 41.663 μm and 42.383 μm and 44.814 μm and 41.883 μm and 43.824 μm and 46.139 μm and 43.354 μm and 38.661 μm and 41.202 μm and 40.552 μm and 46.165 μm and 45.398 μm and 48.471 μm and 47.795 μm and 47.248 μm and 46.278 μm
same,"Thickness of ONL, distance from optic disk 300 μm (single measurement)","compound 9 (pre), 1 mg/mL eye drop, right eye, individual animals 201-210, aqueous humor pressure load rat model",50.813 μm and 51.311 μm and 53.250 μm and 34.452 μm and 30.709 μm and 34.312 μm and 40.039 μm and 41.413 μm and 11.468 μm and 39.811 μm and 37.328 μm and 39.938 μm and 33.741 μm and 35.794 μm and 35.603 μm and 42.742 μm and 44.362 μm and 44.355 μm and 36.433 μm and 40.355 μm and 37.980 μm and 39.617 μm and 40.341 μm and 39.065 μm and 40.883 μm and 41.062 μm and 40.112 μm and 37.690 μm and 36.851 μm and 39.911 μm
same,"Thickness of INL (μm), Distance from Optic Disk 300 μm","compound 9 (pre), 1 mg/mL eye drop, right eye, 300 μm from optic disk, individual measurements per animal",33.065 μm (2×) and 33.507 μm and 34.677 μm and 27.561 μm and 24.567 μm and 22.703 μm and 32.389 μm and 34.110 μm and 29.740 μm and 25.207 μm and 23.667 μm and 23.845 μm and 26.312 μm and 23.484 μm and 24.843 μm and 33.881 μm and 35.521 μm and 29.211 μm and 29.882 μm and 27.608 μm and 23.876 μm and 25.810 μm and 24.277 μm and 32.198 μm and 33.996 μm and 30.756 μm and 28.424 μm and 29.579 μm and 30.220 μm
same,"Thickness of IPL (μm), Distance from Optic Disk 300 μm","compound 9 (pre), 1 mg/mL eye drop, right eye, 300 μm from optic disk, individual measurements per animal, listed as compond 9",30.656 μm and 25.003 μm and 29.032 μm and 29.077 μm and 33.909 μm (2×) and 31.903 μm and 34.939 μm and 37.800 μm and 36.389 μm and 29.133 μm and 28.638 μm and 29.937 μm and 29.144 μm (2×) and 35.013 μm and 33.871 μm and 31.072 μm and 34.110 μm and 29.907 μm and 35.630 μm and 33.931 μm and 27.028 μm and 28.472 μm and 34.310 μm and 34.680 μm and 32.998 μm and 28.183 μm and 25.310 μm and 26.057 μm
same,"Thickness of INL (μm), Distance from Optic Disk 300 μm, Mean","compound 9 (pre), 1 mg/mL eye drop, right eye, 300 μm from optic disk, mean per animal",33.750 μm and 24.944 μm and 32.080 μm and 24.240 μm and 24.880 μm and 34.156 μm and 28.900 μm and 24.654 μm and 32.317 μm and 29.408 μm
